Laboratory results: patent US7897620B2, “Methods of using anti-inflammatory compounds” (Cambridge Enterprise Limited, priority 2007, dated 2011)
pEC50: −log10 of the molar value. Marks after values point to notes of the source that are not given here.

Assays:
[1] = system: C5a induced neutrophil migration; experiment: ChemoTx transwell migration assay, C5a induced migration of neutrophils (non-chemokine chemoattractant); assay type: cell-based; details: highest concentration tested 1 μM, read-out: ED50 C5a neutrophils
Procedure: In principle, this assay consists of two chambers separated by a porous membrane. The chemoattractant is placed in the lower compartment and the cells are placed in the upper compartment. After incubation for a period at 37° C. the cells move towards the chemoattractant, and the number of cells in the lower compartment is proportional to the chemoattractant activity (relative to a series of controls).
Next, the chemoattractant solution to be placed in the lower compartment is prepared. For example, MCP-1 is diluted in GBSS+BSA to give a final concentration of 25 ng/ml. This is divided into two pots, as for the cell suspension. To one pot, the test compound is added to the same final concentration as was added to the cell suspension, while to the other pot an equal volume of GBSS+BSA plus vehicle as appropriate (e,g. not more than 1% DMSO) is added. Alternatively, other chemokines may be used (SDF-1α at 7.5 ng/ml; RANTES at 50 ng/ml; IL-8 at 10 ng/ml using neutrophils as the target cell population). In each case it is important to determine (in a separate experiment) the concentration of each chemokine which causes maximal stimulation of migration of the chosen target leukocyte population. […]
The number of cells migrated into the lower chamber under each condition can then be determined by a number of methods, including direct counting, labelling with fluorescent or radioactive markers or through the use of a vital dye. […] 3 μl of stock MTT solution are added to each well, and then the plate is incubated at 37° C. for 1-2 hours during which time dehydrogenase enzymes within the cells convert the soluble MTT to an insoluble blue formazan product that can be quantified spectrophotometrically. […]
At the end of this incubation, the liquid is carefully removed from the lower chambers, taking care not to disturb the precipitated formazan product. After allowing to air dry briefly, 20 μl of DMSO is added to each lower chamber to solubilise the blue dye, and absorbance at 595 nm is determined using a 96-well plate reader. […]

[2] = system: S. Typhinurium (TA 102, TA98 and TA 100); experiment: AMES test, revertant colony formation; assay type: cell-based; details: for Revertant colony formation TA98 + S9: TA98 with S9, top dose 5 mg/ml; for Revertant colony formation TA98: TA98 without S9, top dose 5 mg/ml; for Revertant colony formation TA100 + S9: TA100 with S9 rat liver microsomal system, top dose 5 mg/ml; for Revertant colony formation TA100: TA100 without S9, top dose 5 mg/ml; for Revertant colony formation TA102 + S9: TA102 with S9, top dose 5 mg/ml; for Revertant colony formation TA102: TA102 without S9, top dose 5 mg/ml
Procedure: The five compounds were subjected to a standard AMES test to assess likely genotoxicity. Three His-auxotroph strains of S. Typhinurium (TA 102, TA98 and TA 100) were treated with each of the compounds at 5 concentrations (up to 5 mg/ml) in the presence and absence of S9 rat liver microsomal metabolising system. The number of revertant colonies was then determined by plating on trace-His minimal media.

[3] = system: target receptor (site of specific interaction of BN83250) (Homo sapiens); experiment: Competition for specific binding of [3H]-BN83250 to human myelomonocytic cell line; details: competition binding curve, non-linear modelling
Sequence of target receptor (site of specific interaction of BN83250) (Homo sapiens) (P30874 whole entry): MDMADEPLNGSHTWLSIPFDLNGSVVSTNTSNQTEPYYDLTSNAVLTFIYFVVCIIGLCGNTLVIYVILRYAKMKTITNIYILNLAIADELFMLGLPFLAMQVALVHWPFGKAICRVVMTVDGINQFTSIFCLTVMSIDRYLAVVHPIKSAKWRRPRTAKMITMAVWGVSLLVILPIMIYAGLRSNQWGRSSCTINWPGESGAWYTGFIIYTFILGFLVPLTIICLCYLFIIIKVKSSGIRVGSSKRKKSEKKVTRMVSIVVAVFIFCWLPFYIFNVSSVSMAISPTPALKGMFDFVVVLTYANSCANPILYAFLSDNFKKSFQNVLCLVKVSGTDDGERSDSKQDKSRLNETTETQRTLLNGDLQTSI
Procedure: The general pharmacology of the five compounds was assessed, both against the specific target receptor, and against a wide variety of other receptors, many related in structure to the target receptor. Specific binding to the target receptor was assessed by competition for the binding of [^3H]-BN83250 (BN83250 is (S)-3-(2′,2′-dimethyldodecanoylamino)-caprolactam; Fox et al. J Med Chem. […]; 48(3):867-74; an agent known to bind to the same target receptor as the lactam BSCIs disclosed here). Binding to non-target receptors was assessed by competition for the binding of various specific radioligands for other receptors which are well known in the art.
For specific binding the human myelomonocytic cell line was resuspended in binding buffer (20 mM HEPES, 150 mM NaCl, pH 7.4; 10^6 cells per reaction) at 4° C. in the presence of 10 nM [^3]-BN83250 (from 1 μM stock in 100% ethanol; 30 Ci/mmol) and various competitors (1% DMSO maximum vehicle concentration). Reactions were incubated for 2 hours on ice, then filtered through GF/C filters pre-soaked in 0.5% polyethyeneimine. Unbound material was washed away with 5×5 ml ice cold washing buffer (20 mM HEPES, 150 mM NaCl, pH 7.4) under a slow vacuum.
Competition for the specific [^3H]-BN83250 with compounds (I′), (II) and (V) was then determined at various concentrations from 1 μM to 10 μM. Compounds (III) and (IV) were not examined in these experiments.
Non-linear modelling was then applied to the competition binding curves for the various compounds, in order to compare their properties as agents binding to the target receptor (defined as the site of specific interaction of BN83250).

O=C1NCCCC[C@@H]1NC(=O)C12CC3CC(CC(C3)C1)C2 [(II), 3-(adamantane-1-carbonylamino)-caprolactam]
pEC50 [1]: < 6.00 | Revertant colony formation TA98 + S9 [2]: 0.60* | Revertant colony formation TA98 [2]: 0.58* | Revertant colony formation TA100 + S9 [2]: 0.73 | Revertant colony formation TA100 [2]: 0.59* | Revertant colony formation TA102 + S9 [2]: 0.93 | Revertant colony formation TA102 [2]: 0.50* | Hill slope [3]: −0.5

O=C1NCCCC[C@@H]1NC(=O)C12CC3CC(CC(O)(C3)C1)C2 [(V), 3-(3′-hydroxyadamantyl-1-carbonylamino)-caprolactam]
pEC50 [1]: < 6.00 | Revertant colony formation TA98 + S9 [2]: 0.91 | Revertant colony formation TA98 [2]: 0.96 | Revertant colony formation TA100 + S9 [2]: 0.88 | Revertant colony formation TA100 [2]: 0.78 | Revertant colony formation TA102 + S9 [2]: 1.09 | Revertant colony formation TA102 [2]: 0.93 | Hill slope [3]: −0.5

CC(C)(C)C(=O)N[C@H]1CCCNC1=O [Compound (I′), 3-(2′,2′-dimethylpropanoylamino)-tetrahydropyridin-2-one]
pEC50 [1]: < 6.00 | Revertant colony formation TA98 + S9 [2]: 1.23 | Revertant colony formation TA98 [2]: 2.00** | Revertant colony formation TA100 + S9 [2]: 0.95 | Revertant colony formation TA100 [2]: 0.97 | Revertant colony formation TA102 + S9 [2]: 0.93 | Revertant colony formation TA102 [2]: 0.82 | Hill slope [3]: −1.0

CC(C)(C)S(=O)(=O)N[C@H]1CCCCNC1=O [(IV), 3-(1′,1′-dimethylethylsulfonylamino)-caprolactam]
Revertant colony formation TA98 + S9 [2]: 0.90 | Revertant colony formation TA98 [2]: 0.82 | Revertant colony formation TA100 + S9 [2]: 0.90 | Revertant colony formation TA100 [2]: 0.89 | Revertant colony formation TA102 + S9 [2]: 0.88 | Revertant colony formation TA102 [2]: 0.85
